Measured values as given in patent US4155930A, “Ureylene phenylene anionic naphthalenesulfonic acids” (American Cyanamid Company, priority 1978, dated 1979).
Structures can show the parent of a compound that is named as a salt.

What follows are molecules tested on shunt pathway (assay: Test Code 036 (C-Shunt inhibitor), lysis of fragile human erythrocytes in autologous serum, cobra venom factor activated). Details: serial two-fold dilution assay; higher well number indicates higher activity; N = negative.
Format: biochemical
Set-up: key: N=Negative (no activity)
Text: An active inhibitor protects C2 from C1 and C4; (ii) Test Code 035 (C3-C9 inhibitor)--This test determines the ability of the late components of human complement (C3-C9) to lyse EAC 142 in the presence of appropriate dilutions of the test compound. An active inhibitor products EAC 142 from lysis by human C3-C9; (iii) Test Code 036 (C-Shunt inhibitor)--In this test human erythrocytes rendered fragile are lysed in autologous serum via the shunt pathway activated by cobra venom factor in the presence of appropriate dilutions of the test compound. Inhibition of the shunt pathway results in failure of lysis; (iv) Forssman Vasculitis Test--Here, the well known complement dependent lesion, Forssman vasculitis, is produced in guinea pigs by intradermal injection of rabbit anti-Forssman antiserum. The lesion is measured in terms of diameter, edema and hemorrhage and the extent to which a combined index of these is inhibited by prior intraperitoneal injection of the test compound at 200 mg/kg is then reported, unless otherwise stated; (v) Forssman Shock Test--Lethal shock is produced in guinea pigs by an i.v. injection of anti-Forssman antiserum and the harmonic mean death time of treated guinea pigs is compared with that of simultaneous controls; (vi) Complement Level Reduction Test--In this test, the above dosed guinea pigs, or others, are bled for serum and the complement level is determined in undiluted serum by the capillary tube method of U.S. Pat. No. 3,876,376 and compared to undosed control guinea pigs; and (vii) Cap 50 Test--Here, appropriate amounts of the test compound are added to a pool of guinea pig serum in vitro, after which the undiluted serum capillary tube assay referred to above is run. The concentration of compound inhibiting 50% is reported.

SMILES | Shunt Inhibition 036* Wells
Cc1ccc(S(=O)(=O)Nc2ccc(S(=O)(=O)[O-])c3cc(S(=O)(=O)[O-])cc(S(=O)(=O)[O-])c23)cc1NS(=O)(=O)c1cccc(NC(=O)Nc2cccc(S(=O)(=O)Nc3cc(S(=O)(=O)Nc4ccc(S(=O)(=O)[O-])c5cc(S(=O)(=O)[O-])cc(S(=O)(=O)[O-])c45)ccc3C)c2)c1.[Na+].[Na+].[Na+].[Na+].[Na+].[Na+] [8,8'-[Ureylenebis[(m-phenylenesulfonylimino)(4-methyl-3,1-phenylenesulfonyl)imino]]di-1,3,5-naphthalenetrisulfonic acid, hexasodium salt] | N
O=C(Nc1cccc(S(=O)(=O)Nc2cccc(S(=O)(=O)Nc3cc(S(=O)(=O)O)cc4cc(S(=O)(=O)O)cc(S(=O)(=O)O)c34)c2)c1)Nc1cccc(S(=O)(=O)Nc2cccc(S(=O)(=O)Nc3cc(S(=O)(=O)O)cc4cc(S(=O)(=O)O)cc(S(=O)(=O)O)c34)c2)c1 [8,8'-[Ureylenebis[[(1,3-phenylenesulfonylimino)-1,3-phenylenesulfonyl]imino]]di-1,3,6-naphthalenetrisulfonic acid, hexasodium salt] | +1 Wells
Cc1ccc(NC(=O)Nc2ccc(C)c(S(=O)(=O)Nc3ccc(C)c(S(=O)(=O)Nc4cc(S(=O)(=O)[O-])cc5cc(S(=O)(=O)[O-])cc(S(=O)(=O)[O-])c45)c3)c2)cc1S(=O)(=O)Nc1ccc(C)c(S(=O)(=O)Nc2cc(S(=O)(=O)[O-])cc3cc(S(=O)(=O)[O-])cc(S(=O)(=O)[O-])c23)c1.[Na+].[Na+].[Na+].[Na+].[Na+].[Na+] [8,8'-[Ureylenebis[[[(6-methyl-3,1-phenylene)sulfonyl]imino]-[[(6-methyl-3,1-phenylene)sulfonyl]imino]]]di-1,3,6-naphthalenetrisulfonic acid, hexasodium salt] | N
